{"source": "ChEMBL document CHEMBL1201862", "about": "“PubChem BioAssay data set” (2004)", "test_in_all_cases": "NCI-60 cell line screen, 48 h", "key": {"SK-MEL-28": {"system": "SK-MEL-28"}, "SF-539": {"system": "SF-539"}, "MOLT-4": {"system": "MOLT-4"}, "UACC-257": {"system": "UACC-257"}, "SK-MEL-2": {"system": "SK-MEL-2"}, "SK-OV-3": {"system": "SK-OV-3"}, "EKVX": {"system": "EKVX"}, "786-0": {"system": "786-0"}, "RPMI-8226": {"system": "RPMI-8226"}, "HCC 2998": {"system": "HCC 2998"}, "UACC-62": {"system": "UACC-62"}, "SK-MEL-5": {"system": "SK-MEL-5"}, "MDA-MB-435": {"system": "MDA-MB-435"}, "NCI/ADR-RES": {"system": "NCI/ADR-RES"}, "SF-295": {"system": "SF-295"}, "A549": {"system": "A549"}, "HCT-15": {"system": "HCT-15"}, "NCI-H226": {"system": "NCI-H226"}, "Malme-3M": {"system": "Malme-3M"}, "SR": {"system": "SR"}}, "note": "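Step 1: Grow cells in 96-well plates. Step 2: Expose to compound for 48 hours at 5 concentrations. Step 3: Interpolate endpoints linearly; if unreached, use highest concentration. At the GI50, growth is halved.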 Activity calls are given as the source filed them. Rule as the data show it: active = GI50 up to about 1.1 µM and inactive = higher.", "data": [{"smiles": "CCc1nc(N)nc(N)c1-c1ccc(NCCc2ccccc2)c([N+](=O)[O-])c1", "values": [{"measurement": "GI50", "setting": "SK-MEL-28", "value": "2.74 µM (inactive)"}, {"measurement": "GI50", "setting": "SF-539", "value": "0.741 µM (active)"}, {"measurement": "GI50", "setting": "MOLT-4", "value": "0.491 µM (active)"}, {"measurement": "GI50", "setting": "UACC-257", "value": "1.77 µM (inactive)"}, {"measurement": "GI50", "setting": "SK-MEL-2", "value": "8.71 µM (inactive)"}, {"measurement": "GI50", "setting": "SK-OV-3", "value": "16.5 µM (inactive)"}, {"measurement": "GI50", "setting": "EKVX", "value": "3.34 µM (inactive)"}, {"measurement": "GI50", "setting": "786-0", "value": "0.211 µM (active)"}, {"measurement": "GI50", "setting": "RPMI-8226", "value": "1.11 µM (active)"}, {"measurement": "GI50", "setting": "HCC 2998", "value": "0.745 µM (active)"}, {"measurement": "GI50", "setting": "UACC-62", "value": "0.162 µM (active)"}, {"measurement": "GI50", "setting": "SK-MEL-5", "value": "0.486 µM (active)"}, {"measurement": "GI50", "setting": "MDA-MB-435", "value": "0.389 µM (active)"}, {"measurement": "GI50", "setting": "NCI/ADR-RES", "value": "0.716 µM (active)"}, {"measurement": "GI50", "setting": "SF-295", "value": "0.317 µM (active)"}, {"measurement": "GI50", "setting": "A549", "value": "0.0861 µM (active)"}, {"measurement": "GI50", "setting": "HCT-15", "value": 0.108, "unit": "µM"}, {"measurement": "GI50", "setting": "NCI-H226", "value": "6.05 µM (inactive)"}, {"measurement": "GI50", "setting": "Malme-3M", "value": "2.38 µM (inactive)"}, {"measurement": "GI50", "setting": "SR", "value": "0.215 µM (active)"}]}, {"smiles": "CCOC(=O)C(NC(=O)CC)(N1CCN(c2cc3c(cc2F)c(=O)c(C(=O)O)cn3C2CC2)CC1)C(F)(F)F", "note": "(stereo not given)", "values": [{"measurement": "GI50", "setting": "SK-MEL-28", "value": "> 100 µM (inactive)"}, {"measurement": "GI50", "setting": "SF-539", "value": "> 100 µM (inactive)"}, {"measurement": "GI50", "setting": "MOLT-4", "value": "> 100 µM (inactive)"}, {"measurement": "GI50", "setting": "UACC-257", "value": "> 100 µM (inactive)"}, {"measurement": "GI50", "setting": "SK-MEL-2", "value": "> 100 µM (inactive)"}, {"measurement": "GI50", "setting": "SK-OV-3", "value": "> 100 µM (inactive)"}, {"measurement": "GI50", "setting": "EKVX", "value": "> 100 µM (inactive)"}, {"measurement": "GI50", "setting": "786-0", "value": "> 100 µM (inactive)"}, {"measurement": "GI50", "setting": "RPMI-8226", "value": "> 100 µM (inactive)"}, {"measurement": "GI50", "setting": "HCC 2998", "value": "> 100 µM (inactive)"}, {"measurement": "GI50", "setting": "UACC-62", "value": "> 100 µM (inactive)"}, {"measurement": "GI50", "setting": "SK-MEL-5", "value": "> 100 µM (inactive)"}, {"measurement": "GI50", "setting": "MDA-MB-435", "value": "> 100 µM (inactive)"}, {"measurement": "GI50", "setting": "NCI/ADR-RES", "value": "> 100 µM (inactive)"}, {"measurement": "GI50", "setting": "SF-295", "value": "> 100 µM (inactive)"}, {"measurement": "GI50", "setting": "A549", "value": "> 100 µM (inactive)"}, {"measurement": "GI50", "setting": "HCT-15", "value": "> 100", "unit": "µM"}, {"measurement": "GI50", "setting": "NCI-H226", "value": "> 100 µM (inactive)"}, {"measurement": "GI50", "setting": "Malme-3M", "value": "> 100 µM (inactive)"}, {"measurement": "GI50", "setting": "SR", "value": "> 100 µM (inactive)"}]}, {"smiles": "Clc1nc2c(C#Cc3ccccc3)ncnc2n1C1CCCCO1", "note": "(stereo not given)", "values": [{"measurement": "GI50", "setting": "SK-MEL-28", "value": "26.5 µM (inactive)"}, {"measurement": "GI50", "setting": "SF-539", "value": "14.3 µM (inactive)"}, {"measurement": "GI50", "setting": "MOLT-4", "value": "17.7 µM (inactive)"}, {"measurement": "GI50", "setting": "UACC-257", "value": "15 µM (inactive)"}, {"measurement": "GI50", "setting": "SK-MEL-2", "value": "12.9 µM (inactive)"}, {"measurement": "GI50", "setting": "SK-OV-3", "value": "27.6 µM (inactive)"}, {"measurement": "GI50", "setting": "EKVX", "value": "2.55 µM (inactive)"}, {"measurement": "GI50", "setting": "786-0", "value": "11.6 µM (inactive)"}, {"measurement": "GI50", "setting": "RPMI-8226", "value": "4.12 µM (inactive)"}, {"measurement": "GI50", "setting": "HCC 2998", "value": "14.7 µM (inactive)"}, {"measurement": "GI50", "setting": "UACC-62", "value": "13.4 µM (inactive)"}, {"measurement": "GI50", "setting": "SK-MEL-5", "value": "11.6 µM (inactive)"}, {"measurement": "GI50", "setting": "MDA-MB-435", "value": "7 µM (inactive)"}, {"measurement": "GI50", "setting": "NCI/ADR-RES", "value": "25.8 µM (inactive)"}, {"measurement": "GI50", "setting": "SF-295", "value": "22.6 µM (inactive)"}, {"measurement": "GI50", "setting": "A549", "value": "16.5 µM (inactive)"}, {"measurement": "GI50", "setting": "HCT-15", "value": 12.2, "unit": "µM"}, {"measurement": "GI50", "setting": "NCI-H226", "value": "71.3 µM (inactive)"}, {"measurement": "GI50", "setting": "Malme-3M", "value": "17.6 µM (inactive)"}, {"measurement": "GI50", "setting": "SR", "value": "4.37 µM (inactive)"}]}, {"smiles": "COc1cc2c(/C=C3/C(=O)Nc4ccccc43)c(Cl)n(Cc3ccc(Cl)cc3)c2cc1C", "values": [{"measurement": "GI50", "setting": "SK-MEL-28", "value": "0.386 µM (active)"}, {"measurement": "GI50", "setting": "SF-539", "value": "0.27 µM (active)"}, {"measurement": "GI50", "setting": "MOLT-4", "value": "0.264 µM (active)"}, {"measurement": "GI50", "setting": "UACC-257", "value": "0.378 µM (active)"}, {"measurement": "GI50", "setting": "SK-MEL-2", "value": "1.16 µM (inactive)"}, {"measurement": "GI50", "setting": "SK-OV-3", "value": "0.305 µM (active)"}, {"measurement": "GI50", "setting": "EKVX", "value": "1.18 µM (inactive)"}, {"measurement": "GI50", "setting": "786-0", "value": "0.323 µM (active)"}, {"measurement": "GI50", "setting": "RPMI-8226", "value": "0.27 µM (active)"}, {"measurement": "GI50", "setting": "HCC 2998", "value": "0.134 µM (active)"}, {"measurement": "GI50", "setting": "UACC-62", "value": "0.28 µM (active)"}, {"measurement": "GI50", "setting": "SK-MEL-5", "value": "0.384 µM (active)"}, {"measurement": "GI50", "setting": "MDA-MB-435", "value": "0.193 µM (active)"}, {"measurement": "GI50", "setting": "NCI/ADR-RES", "value": "0.225 µM (active)"}, {"measurement": "GI50", "setting": "SF-295", "value": "0.333 µM (active)"}, {"measurement": "GI50", "setting": "A549", "value": "0.366 µM (active)"}, {"measurement": "GI50", "setting": "HCT-15", "value": 0.242, "unit": "µM"}, {"measurement": "GI50", "setting": "NCI-H226", "value": "0.336 µM (active)"}, {"measurement": "GI50", "setting": "Malme-3M", "value": "0.843 µM (active)"}, {"measurement": "GI50", "setting": "SR", "value": "0.209 µM (active)"}]}, {"smiles": "C/C(=C\\c1ccccc1)C(=O)NCc1ccc(C(=O)NCCc2c[nH]c3ccccc23)cc1", "values": [{"measurement": "GI50", "setting": "SK-MEL-28", "value": "> 100 µM (inactive)"}, {"measurement": "GI50", "setting": "SF-539", "value": "> 100 µM (inactive)"}, {"measurement": "GI50", "setting": "MOLT-4", "value": "60.7 µM (inactive)"}, {"measurement": "GI50", "setting": "UACC-257", "value": "13.6 µM (inactive)"}, {"measurement": "GI50", "setting": "SK-MEL-2", "value": "> 100 µM (inactive)"}, {"measurement": "GI50", "setting": "SK-OV-3", "value": "> 100 µM (inactive)"}, {"measurement": "GI50", "setting": "EKVX", "value": "48.9 µM (inactive)"}, {"measurement": "GI50", "setting": "786-0", "value": "76 µM (inactive)"}, {"measurement": "GI50", "setting": "RPMI-8226", "value": "> 100 µM (inactive)"}, {"measurement": "GI50", "setting": "HCC 2998", "value": "16 µM (inactive)"}, {"measurement": "GI50", "setting": "UACC-62", "value": "14 µM (inactive)"}, {"measurement": "GI50", "setting": "SK-MEL-5", "value": "50.5 µM (inactive)"}, {"measurement": "GI50", "setting": "MDA-MB-435", "value": "78 µM (inactive)"}, {"measurement": "GI50", "setting": "NCI/ADR-RES", "value": "> 100 µM (inactive)"}, {"measurement": "GI50", "setting": "SF-295", "value": "> 100 µM (inactive)"}, {"measurement": "GI50", "setting": "A549", "value": "> 100 µM (inactive)"}, {"measurement": "GI50", "setting": "HCT-15", "value": "> 100", "unit": "µM"}, {"measurement": "GI50", "setting": "NCI-H226", "value": "> 100 µM (inactive)"}, {"measurement": "GI50", "setting": "Malme-3M", "value": "> 100 µM (inactive)"}, {"measurement": "GI50", "setting": "SR", "value": "> 100 µM (inactive)"}]}]}
